In patent publication US8580805B2, “Pyrimidine carboxamide derivatives” (priority 2010, dated 2013):

How the values were obtained:
[1] = tested on: adjuvant-induced arthritis in male Lewis rats; experiment: adjuvant-induced arthritis test in rats; type: in vivo, rat; conditions: change day 28 minus day 21; 30 mg/kg by intubation each day for seven days; vehicle result in parenthesis
Method: As mentioned earlier, the compounds of formula (1) and pharmaceutically acceptable salts of compounds of formula (1) are useful in the treatment or prevention of inflammations and diseases where inflammation is the innate cause. For example, they can be used as anti-inflammatory agents in the treatment of inflammatory joint diseases, such as arthritis. To substantiate this assertion, representative compounds of formula (1) were tested for their inflammation-inhibiting properties in the adjuvant-induced arthritis test in rats as described in Int J Immunopharma, […], 12, 709-712.
A quantity of 0.1 ml of a 0.5% (weight/volume) suspension of heat-killed and dried mycobacterium butyricum in heavy mineral oil, containing 0.2% digitonin, is injected into the base of the tail of male Lewis rats (120-140 g). The animals are housed individually and receive feed and water ad libitum. The thus-induced arthritis is allowed to develop without treatment during 21 days. On day 21 the body weight of each animal is determined. At the same time, the volumes of the two hind paws of each animal are measured by immersing the paws in an aqueous plethysmograph up to the height of the lateral malleolus. Thereupon, the animals are divided into groups, each group comprising six animals of approximately the same average volumes of the hind paws. One group is administered suspending vehicle. The other groups are administered the micronized test compound suspended in an aqueous suspending vehicle [0.9% NaCl (w/v) containing 0.5% carboxymethyl cellulose (w/v), 0.86% benzyl alcohol (v/v) and 0.39% Tween 80 (v/v)]. The test compound in aqueous suspending vehicle (or vehicle alone) is administered to the animals by intubation each day over a period of seven days. The effect of the test compounds is monitored daily by measurement of the hind paw volumes and body weights. At the end of the treatment period (day 28), body weights and volumes of the hind paws are again determined. The changes over the treatment period are calculated. The change in paw volume or body weight equals the paw volume or body weight on day 28 minus paw volume or body weight on day 21.
The results determined for representative compounds of formula (1) in the test described hereinbefore are set forth in the following Table I. Therein, the results for vehicle is in parenthesis following the results for each tested compound at a dose level of 30 mg/kg in each test.

ovine COX-1 = molecular target: T1, ovine COX-1 (Ovis aries, UniProt P05979); experiment: COX Activity Assay (Cayman), colorimetric, COX-1; type: biochemical; conditions: at a level of 300 μM
T1 construct: purchased Cayman Chemicals
T1 sequence (P05979 25-600): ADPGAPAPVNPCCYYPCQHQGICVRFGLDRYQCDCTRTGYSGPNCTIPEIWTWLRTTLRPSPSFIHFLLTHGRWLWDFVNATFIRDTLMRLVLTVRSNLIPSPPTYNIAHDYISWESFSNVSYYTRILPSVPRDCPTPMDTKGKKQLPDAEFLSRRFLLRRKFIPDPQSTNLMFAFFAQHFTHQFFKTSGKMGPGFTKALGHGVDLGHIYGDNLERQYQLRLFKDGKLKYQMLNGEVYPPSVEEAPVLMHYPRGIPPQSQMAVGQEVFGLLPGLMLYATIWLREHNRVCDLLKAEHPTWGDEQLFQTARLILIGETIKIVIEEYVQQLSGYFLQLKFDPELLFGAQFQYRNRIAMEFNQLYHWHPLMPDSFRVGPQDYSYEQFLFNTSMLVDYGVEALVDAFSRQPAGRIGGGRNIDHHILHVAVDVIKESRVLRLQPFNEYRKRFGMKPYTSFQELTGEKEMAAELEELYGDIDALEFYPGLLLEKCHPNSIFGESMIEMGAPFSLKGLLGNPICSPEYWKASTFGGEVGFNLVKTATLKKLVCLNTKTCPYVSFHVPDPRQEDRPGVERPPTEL
Method: (§1) A representative compounds of formula (1a), was also tested for the effects on the activity of purified COX1, COX2, and LOX5 enzymes. In sharp contrast to the potent activity in the adjuvant-induced arthritis test in rats, the activity against the isolated arachidonic acid metabolizing enzymes was low.
(§2) COX activity was measured using an assay kit obtained from Cayman Chemicals in accord with the instruction manual of the manufacturer “COX Activity Assay, Catalog No. 760151, Colorimetric Assay for the Determination of COX Activity.” The enzyme activity was determined by the peroxidase activity of cyclooxygenases on arachidonic acid and monitored colorimetrically at 590 nm by the appearance of oxidized N,N,N′,N′-tetramethyl-p-phenylenediamine. Both ovine COX-1 and human recombinant COX-2 were obtained from Cayman Chemicals.

human recombinant COX-2 = molecular target: T2, human recombinant COX-2 (Homo sapiens, UniProt P35354); experiment: COX Activity Assay (Cayman), colorimetric, COX-2; type: biochemical; conditions: read-out: IC50 for COX2
T2 construct: purchased Cayman Chemicals
T2 sequence (P35354 18-604): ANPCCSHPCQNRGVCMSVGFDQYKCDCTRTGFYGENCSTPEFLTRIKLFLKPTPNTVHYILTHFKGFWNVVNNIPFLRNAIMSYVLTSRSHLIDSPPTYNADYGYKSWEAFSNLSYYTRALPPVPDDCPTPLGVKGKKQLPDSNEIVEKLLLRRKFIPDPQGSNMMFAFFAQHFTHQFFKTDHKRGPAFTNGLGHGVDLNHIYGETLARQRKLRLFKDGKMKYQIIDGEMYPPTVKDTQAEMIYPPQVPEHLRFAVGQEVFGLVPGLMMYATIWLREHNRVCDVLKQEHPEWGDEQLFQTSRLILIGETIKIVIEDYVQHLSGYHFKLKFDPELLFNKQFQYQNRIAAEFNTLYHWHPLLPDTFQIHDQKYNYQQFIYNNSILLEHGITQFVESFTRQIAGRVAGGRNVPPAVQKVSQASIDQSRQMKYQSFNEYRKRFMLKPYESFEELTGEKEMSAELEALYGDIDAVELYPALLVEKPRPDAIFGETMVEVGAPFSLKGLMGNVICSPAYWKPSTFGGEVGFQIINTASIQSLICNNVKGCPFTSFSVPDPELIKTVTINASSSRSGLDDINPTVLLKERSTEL
Method: as §1, §2

[2] = tested on: purified potato 5-lipoxygenase; experiment: LOX Inhibitor Screening Assay Kit (Cayman), colorimetric; type: biochemical; conditions: arachidonic acid as substrate
Method: A representative compounds of formula (1a), was also tested for the effects on the activity of purified COX1, COX2, and LOX5 enzymes. In sharp contrast to the potent activity in the adjuvant-induced arthritis test in rats, the activity against the isolated arachidonic acid metabolizing enzymes was low. LOX5 activity was also measured colorimetrically by the hydroperoxides generated from the incubation of purified potato 5-lipoxygenase (Cayman Chemical Item Number 60401) in the LOX Inhibitor Screening Assay Kit (Cayman Chemical Item Number 760700) using arachidonic acid as substrate and following the protocol provided by Cayman Chemical. The test substance A inhibited the enzyme at 300, 100, 30 μM at 89, 69, and 46%, respectively.

SMILES: CNC(=O)c1cnc(OC)nc1-c1cc(C(C)(C)C)c(O)c(C(C)(C)C)c1 [C, 4-(3,5-di-tert-butyl-4-hydroxy-phenyl)-2-methoxy-pyrimidine-5-carboxylic acid methylamide]
- Body weight change (g) [1]: 28 ± 2 (13) g
- Left paw volume (mL) [1]: −0.65 ± 0.02 (0.09) mL
- Right paw volume (mL) [1]: −0.61 ± 0.01 (0.08) mL

SMILES: CNC(=O)c1cnc(C)nc1-c1cc(C(C)(C)C)c(O)c(C(C)(C)C)c1 [Compound A, 4-(3,5-di-tert-butyl-4-hydroxy-phenyl)-2-methyl-pyrimidine-5-carboxylic acid methylamide]
- effect on COX1 (ovine COX-1): no effect
- Body weight change (g) [1]: 25 ± 3 (13) g
- Left paw volume (mL) [1]: −0.88 ± 0.12 (0.09) mL
- Right paw volume (mL) [1]: −0.99 ± 0.15 (0.08) mL
- IC50 (human recombinant COX-2): 60 µM
- LOX5 inhibition ([2]; 30 μM): 46%
- LOX5 inhibition ([2]; 100 μM): 69%
- LOX5 inhibition ([2]; 300 μM): 89%
